According to PubChem BioAssay (NCI):
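Growth conditions: 96-well plates. Treatment: test compound, 48 hours, 5 concentrations. Analysis: linear interpolation between bracketing concentrations; unreached endpoints set to highest concentration. At the TGI there is no net growth.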

What was measured:
Assay in all cases: NCI-60 cell line screen, 48 h
HCT-15 colon = system: HCT-15 colon
NCI/ADR-RES ovarian = system: NCI/ADR-RES ovarian
EKVX NSCLC = system: EKVX NSCLC
HOP-62 NSCLC = system: HOP-62 NSCLC
ACHN renal = system: ACHN renal
RPMI-8226 leukemia = system: RPMI-8226 leukemia
SR leukemia = system: SR leukemia
NCI-H460 lung = system: NCI-H460 lung
786-0 renal = system: 786-0 renal
MCF7 breast = system: MCF7 breast
NCI-H522 lung = system: NCI-H522 lung
MDA-MB-231 breast = system: MDA-MB-231 breast
COLO 205 colon = system: COLO 205 colon
LOX IMVI melanoma = system: LOX IMVI melanoma
MOLT-4 leukemia = system: MOLT-4 leukemia
KM12 colon = system: KM12 colon
SF-268 CNS = system: SF-268 CNS
OVCAR-4 ovarian = system: OVCAR-4 ovarian
HL-60(TB) leukemia = system: HL-60(TB) leukemia

| SMILES | TGI (HCT-15 colon) [µM] | TGI (NCI/ADR-RES ovarian) [µM] | TGI (EKVX NSCLC) [µM] | TGI (HOP-62 NSCLC) [µM] | TGI (ACHN renal) [µM] | TGI (RPMI-8226 leukemia) [µM] | TGI (SR leukemia) [µM] | TGI (NCI-H460 lung) [µM] | TGI (786-0 renal) [µM] | TGI (MCF7 breast) [µM] | TGI (NCI-H522 lung) [µM] | TGI (MDA-MB-231 breast) [µM] | TGI (COLO 205 colon) [µM] | TGI (LOX IMVI melanoma) [µM] | TGI (MOLT-4 leukemia) [µM] | TGI (KM12 colon) [µM] | TGI (SF-268 CNS) [µM] | TGI (OVCAR-4 ovarian) [µM] | TGI (HL-60(TB) leukemia) [µM] |
| --- | --- | --- | --- | --- | --- | --- | --- | --- | --- | --- | --- | --- | --- | --- | --- | --- | --- | --- | --- |
| O=C(NCCCCNCCCNC(=O)c1cc(-c2ccccc2)nc2ccccc12)c1cc(-c2ccccc2)nc2ccccc12 | 3.46 | 5.09 | 3.52 | 3.02 | 3.3 | 6.33 | 6.09 | 3.39 | 3.03 | 3.07 | 3.08 | – | – | – | – | – | – | – | – |
| O=S(=O)(O)c1ccc2c(N=Nc3ccccc3Cl)c(O)ccc2c1 | > 100 | > 100 | > 100 | > 100 | > 100 | > 100 | > 100 | – | > 100 | – | > 100 | > 100 | > 100 | > 100 | > 100 | > 100 | > 100 | > 100 | – |
| CC([C@H]1CCC2C3CCC4CC5(CC[C@]4(C)C3CC[C@@]21C)c1ccccc1C(=O)N5C)N(C)C (some centres not stated) | > 100 | – | – | > 100 | > 100 | > 100 | 74.7 | > 100 | 29.8 | – | > 100 | – | > 100 | 4.21 | 91.7 | > 100 | > 100 | > 100 | 46.3 |
| CCN(CC)CCSc1nc2c(c(=N)n1-c1ccccc1)c(=S)n(-c1ccccc1)c(=S)n2-c1ccccc1 | 4.35 | 52.5 | 7.31 | 8.32 | 3.16 | 1.02 | 0.936 | 3.86 | 1.55 | – | – | 3.73 | 3.51 | 3.34 | 2.33 | 12.8 | 3.9 | 7.87 | 1.29 |
| CC(Oc1ccc(OCC2CCCCC2)cc1)C(=O)O (configuration not stated) | > 100 | – | – | – | > 100 | – | – | > 100 | > 100 | – | > 100 | – | – | > 100 | > 100 | > 100 | > 100 | > 100 | > 100 |
| COc1ccc(Nc2nc(N)c(C(=O)c3ccccc3)s2)cc1 | 26.2 | – | 58.2 | > 100 | > 100 | 32.7 | 14.5 | 19.9 | 31.6 | > 100 | > 100 | – | 0.333 | > 100 | > 61.7 | > 19.8 | > 58.1 | > 60.8 | 0.271 |
